Results from patent publication US10093716B2, “Methods for treating cancer” (UCL BUSINESS PLC, priority 2013, dated 2018).

Legend:
A549 cells = experiment: xCELLigence migration assay, A549; type: cell-based, human; settings: 100 μg/ml recombinant receptor-Fc protein during migration, FIG. 1F
Experimental: siRNA-mediated knockdown. Knockdown experiments were performed by transient transfection of RISC-free control siRNA, siRNA pools or single sequences (Dharmacon) to silence the indicated proteins using Dharmafect I (Dharmacon) following the instruction manual. All cell lines were incubated for 48 h to achieve sufficient knockdown.
Migration assays. Migration assays were performed using the xCELLigence System (Roche) according to manufacturer's instructions. See Supplementary Methods for detailed description.
Migration assays were performed using the xCELLigence System (Roche) that uses specially designed microtiter plates containing gold microelectrodes to measure electrical impedance of cells adhering to electrodes in real time. Increased impedance of background control wells was subtracted from all other values, the increase in electrical impedance/migration of control siRNA-transfected/control vector-infected cells was then defined as 100% migration and relative migration of all other transfected samples was calculated as compared to control-transfected cells, accordingly. Migration plates (CIM 16) are based on the Boyden chamber principle, the lower surface of the filter is covered with microelectrodes measuring cells that have migrated through the pores and adhere to the lower surface of the filter in real time. […]

A549-luc cells = experiment: Experimental lung metastasis model, A549-luc cells injected into tail vein; type: in vivo, SCID beige mice; settings: 0.5 mg/mouse i.p., 3× per week starting 1 day after cell injection; bioluminescence after 2 weeks; FIG. 3D
Experimental: FIGS. 3A-3D| KRAS-mutated cells require autocrine TRAIL-R2-mediated migration for metastasis formation. FIG. 3A, 2×10^6 A549-luc cells infected with shTRAIL-R2 or control vector were injected into the tail vein of SCID beige mice. Metastatic burden in the lungs was detected after three weeks by quantification of bioluminescence (Photons/second). Three representative mice from each group are shown (n=9/group). FIG. 3B, FIG. 3C Five lungs from each group that were closest to the average value of the respective group in the H&E quantification were subjected to further Ki67 and TUNEL stainings and quantified as Ki67 and TUNEL positive area within tumor nodules, respectively. Representative images are shown. FIG. 3D, A549-luc parental cells were injected as in FIG. 3A, mice were treated with Vehicle (PBS) or 0.5 mg TRAIL-R2-Fc/mouse starting the next day, 3× per week.
Bioluminescence was determined after 2 weeks, representative mice are shown (n=8/group). Arrows indicate Ki67/TUNEL-positive cells. Dots represent individual lungs. Values are means+/−SEM; ns, not significant; * P<0.05 Student's t-test.
Animal Models. […] Photons per second (Photon Flux) were quantified using the Ivis Spectrum software. […] After one week, tumours were palpable and their size was measured by caliper. […]

Rac1 [1] = experiment: Rac1 pulldown assay (GTP-bound Rac1, PAK1-beads), A549; type: cell-based, human; settings: A549 cells, iz-TRAIL 100 ng/ml; FIG. 8E
Experimental: FIGS. 8A-8J| Autocrine TRAIL is required for caspase-independent migration and Rac1 activation. FIG. 8A, DLD-1 cells were transfected with the indicated siRNAs and subjected to migration assays. FIG. 8B, A549 cells were treated with DMSO or 10 μM zVAD-fmk and were subsequently subjected to migration assays. FIG. 8C, Dominant negative FADD (dnFADD)-overexpressing DLD-1 cells were transfected with the indicated siRNAs and subjected to migration assays. FIG. 8D, Parental and DLD-1 cells overexpressing dnFADD were treated with 1 μg/ml iz-TRAIL for the indicated times, subsequently lysed and subjected to Western blot analysis. FIG. 8E, A549 cells were treated with iz-TRAIL (100 ng/ml) for the indicated times and subjected to pulldown of GTP-bound Rac1 using PAK1-beads (Millipore-Rac1 activation kit). Cell lysates were subsequently analyzed by Western blotting. FIG. 8F, Control or shTRAIL-R2-infected A549 cells were subjected to pulldown of GTP-bound Rac1 as in FIG. 8E. FIG. 8G, A549 cells were transfected with the indicated siRNAs and subjected to migration assays. FIG. 8H, KRAS-mutated (DLD-1, HCT116) and isogenic KRAS-WT (DKO4, Hkh-2) cell lines were lysed and subjected to Western blotting. FIG. 8I, KRAS-mutated H460 cells were transfected with the indicated siRNAs. […]
2.5×10^6 cells were seeded into 10 cm dishes. […] Proteins were separated by SDS-PAGE (NuPAGE) and analyzed by Western blotting.

Rac1 [2] = experiment: Rac1 pulldown assay (GTP-bound Rac1, PAK1-beads), isogenic DLD-1 and DKO4; type: cell-based, human; settings: isogenic KRAS-mutated DLD-1 versus KRAS-WT DKO4, iz-TRAIL 100 ng/ml; FIG. 7E
Experimental: FIGS. 7A-7F| Autocrine migration is independent of the DISC but requires Rac1. FIG. 7A, FADD-deficient clones 10, 41 and 50 were transfected with the indicated siRNAs and subjected to migration assays. FIG. 7B, Control vector-infected or shTRAIL-R2-infected A549 cells were fixed and stained using Texas red-coupled phalloidin and DAPI. Representative confocal images are shown (×400).c, A549 cells were treated with DMSO, PD98059 (10 μM), PIK75 (100 nM) or NSC23766 (100 μM) and subjected to migration assays. FIG. 7D, A549 cells were transfected with the indicated siRNAs and subjected to migration assays. FIG. 7E, Isogenic DLD-1 and DKO4 cells were treated with iz-TRAIL (100 ng/ml) for the indicated times and then subjected to pulldown of GTP-bound Rac1 using PAK1-beads (Millipore-Rac1 activation kit). FIG. 7F, KRAS-WT DKO4 cells were transfected with the indicated siRNAs and prior to migration treated with vehicle (H2O) or 10 μM Y27632. Representative Western blots are shown.
2.5×10^6 cells were seeded into 10 cm dishes. The next day, cells were incubated with and without 100 ng/ml iz-TRAIL. Cell lysis and Rac1 pulldown was performed using a Rac1-pulldown kit (Millipore) according to the manufacturer's instructions. Proteins were separated by SDS-PAGE (NuPAGE) and analyzed by Western blotting.

Molecule | migration (normalized to PBS-treated cells) (A549 cells) | metastasis (metastatic burden in lungs, bioluminescence) (A549-luc cells) | Rac1 activation (GTP-bound Rac1 pulldown) (Rac1 [1]) | Rac1 activation (GTP-bound Rac1 pulldown) (Rac1 [2])
TRAIL-R2-Fc fusion protein: majority of the extracellular domain of human TRAIL-R2 fused to the Fc portion of human IgG1 (SEQ ID NO: 15); TRAIL-inhibiting | suppressed migration to a similar extent | significantly reduced metastasis |  | 
TRAIL: recombinant iz-TRAIL produced in E. coli, LPS-free after purification (protein) MAMMEVQGGPSLGQTCVLIVIFTVLLQSLCVAVTYVYFTNELKQMQDKYSKSGIACFLKEDDSYWDPNDEESMNSPCWQVKWQLRQLVRKMILRTSEETISTVQEKQQNISPLVRERGPQRVAAHITGTRGRSNTLSSPNSKNEKALGRKINSWESSRSGHSFLSNLHLRNGELVIHEKGFYYIYSQTYFRFQEEIKENTKNDKQMVQYIYKYTSYPDPILLMKSARNSCWSKDAEYGLYSIYQGGIFELKENDRIFVSVTNEHLIDMDHEASFFGAFLVG |  |  | able to activate Rac1 | only capable of doing so in KRAS-mutated cells
